Test results reported in patent publication US20250099557A1, “ANTIBIOTIC PHARMACEUTICAL COMPOSITION CAPABLE OF SUBCUTANEOUS ADMINISTRATION” (SHANGHAI BAO PHARMACEUTICALS CO., LTD., priority 2021, published 2025).

How the values were obtained:
[1] = molecular target: T1, HAase (Homo sapiens, UniProt P38567); test: Compatibility study of HAase and antibiotic in solution: HAase activity; format: biochemical; conditions: 15 min room temperature; for Final concentration of HAase (units/ml) 150: HAase added to 150 units/ml; for Final concentration of HAase (units/ml) 500: HAase added to 500 units/ml; for Final concentration of HAase (units/ml) 2000: HAase added to 2000 units/ml; for Final concentration of HAase (units/ml) 6000: HAase added to 6000 units/ml; for interference with the activity of HAase: antibiotic and HAase in physiological saline
T1 construct: made in house
T1 sequence (P38567 36-482): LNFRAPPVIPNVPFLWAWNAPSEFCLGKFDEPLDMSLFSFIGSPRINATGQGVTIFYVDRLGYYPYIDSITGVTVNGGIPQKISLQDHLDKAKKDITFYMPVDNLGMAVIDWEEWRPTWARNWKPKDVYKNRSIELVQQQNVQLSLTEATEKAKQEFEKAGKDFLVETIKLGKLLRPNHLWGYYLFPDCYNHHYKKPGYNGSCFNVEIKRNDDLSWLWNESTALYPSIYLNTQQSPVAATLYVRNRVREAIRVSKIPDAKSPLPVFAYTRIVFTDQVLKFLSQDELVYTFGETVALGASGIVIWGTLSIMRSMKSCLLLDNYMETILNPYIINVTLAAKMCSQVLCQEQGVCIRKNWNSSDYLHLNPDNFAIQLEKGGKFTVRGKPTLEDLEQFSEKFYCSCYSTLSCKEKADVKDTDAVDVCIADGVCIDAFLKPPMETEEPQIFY
Procedure: “HAase activity refers to the ability of HAase to catalytically cleave hyaluronic acid. The Chinese Pharmacopoeia provides a method for determining the HAase activity, indirectly by measuring the amount of remaining higher-molecular-weight hyaluronic acid substrate after the enzyme is allowed to catalytically cleave hyaluronic acid at 37° C. for 30 min. A standard reference solution can be used in the assay to determine the relative activity (in units) of any HAase. In-vitro assays for the determination of HAase are known in the art. Exemplary assays include micro-turbidimetric assay described below, which indirectly measures the cleavage of hyaluronic acid by HAase by detecting an insoluble precipitate formed when uncleaved hyaluronic acid binds to serum albumin. The reference standard can be used, for example, to generate a standard curve, so as to determine the activity of the tested HAase in units.
(§1) The compatibility of HAase and an antibiotic was studied by preparing a solution comprising the two substances. A dry Meropenem power for injection was dissolved in physiological saline to give a concentration of 5 mg/ml and 50 mg/ml, and then HAase was added to give a final concentration of 150, 500, 2000, and 6000 units/ml respectively. After preparation, the solution was left to stand at room temperature for 15 min. The appearance of the solution was observed, and the concentration of HAase was determined.
as §1, with “dry Ceftriaxone sodium” for “dry Meropenem”, “of 50” for “of 5”, “and 250” for “and 50”
as §1, with “dry Azithromycin” for “dry Meropenem”, “of 10” for “of 5”, “and 100” for “and 50”
as §1, with “dry Cefradine powder” for “dry Meropenem power”, “of 50” for “of 5”, “and 250” for “and 50”
as §1, with “dry Teicoplanin powder” for “dry Meropenem power”, “of 10” for “of 5”, “and 70” for “and 50”
as §1, with “dry Ceftazidime powder” for “dry Meropenem power”, “of 20” for “of 5”, “and 200” for “and 50”, “min.” for “min. The appearance of the solution was observed, and the concentration of HAase was determined.”

[2] = tested on: intestinal flora; test: Effects of administration routes on the diversity of intestinal flora in mice (16S rDNA sequencing, OTU); format: in vivo; conditions: C57BL/6 mice, feces
From the text: 12 SPF grade C57BL/6 mice were used for each antibiotic mode, and divided into two groups, each having 6 mice. The two groups include an oral administration group, and a subcutaneous administration group combined with recombinant human HAase. A blank control group including 6 mice was also set. The mice in the oral administration group were given the model antibiotic solution by oral gavage for five consecutive days. The mice in the subcutaneous administration group combined with recombinant human HAase were given the same dose of model antibiotic as that in the oral administration group by subcutaneous administration for five consecutive days. The feces of mice in each group were collected on the 1 st, 2nd, 3rd, 4th, 5th, 6th, 8th, 10th and 14th days after five consecutive days of administration, and stored at −80° C., for detecting the microbial diversity later. The fecal samples of each group were amplified and sequenced by 16S rDNA sequencing. After DNA extraction, PCR amplification and gene sequencing, the changes of intestinal bacterial diversity in each group of mice were analyzed. The relative species diversity of the test group was calculated, with the OUT value of the blank control group in each day as a reference, as shown in Table 33.

[3] = antibiotic 10 mg/ml in physiological saline
[4] = antibiotic 70 mg/ml in physiological saline
[5] = in combination with recombinant human HAase for subcutaneous administration, five consecutive days, D1 after administration
[6] = in combination with recombinant human HAase for subcutaneous administration, five consecutive days, D2
[7] = in combination with recombinant human HAase for subcutaneous administration, five consecutive days, D3
[8] = in combination with recombinant human HAase for subcutaneous administration, five consecutive days, D4
[9] = in combination with recombinant human HAase for subcutaneous administration, five consecutive days, D5
[10] = in combination with recombinant human HAase for subcutaneous administration, five consecutive days, D6
[11] = in combination with recombinant human HAase for subcutaneous administration, five consecutive days, D8
[12] = in combination with recombinant human HAase for subcutaneous administration, five consecutive days, D10
[13] = in combination with recombinant human HAase for subcutaneous administration, five consecutive days, D14
[14] = oral administration for five consecutive days, D1 after administration
[15] = oral administration for five consecutive days, D2
[16] = oral administration for five consecutive days, D3
[17] = oral administration for five consecutive days, D4
[18] = oral administration for five consecutive days, D5
[19] = oral administration for five consecutive days, D6
[20] = oral administration for five consecutive days, D8
[21] = oral administration for five consecutive days, D10
[22] = oral administration for five consecutive days, D14
[23] = antibiotic 50 mg/ml in physiological saline
[24] = antibiotic 250 mg/ml in physiological saline

| Relative abundance of OUT (operational taxonomic units) [2, 5] [%] | Relative abundance of OUT (operational taxonomic units) [2, 6] [%] | Relative abundance of OUT (operational taxonomic units) [2, 7] [%] | Relative abundance of OUT (operational taxonomic units) [2, 8] [%] | Relative abundance of OUT (operational taxonomic units) [2, 9] [%] | Relative abundance of OUT (operational taxonomic units) [2, 10] [%] | Relative abundance of OUT (operational taxonomic units) [2, 11] [%] | Relative abundance of OUT (operational taxonomic units) [2, 12] [%] | Relative abundance of OUT (operational taxonomic units) [2, 13] [%] | Relative abundance of OUT (operational taxonomic units) [2, 14] [%] | Relative abundance of OUT (operational taxonomic units) [2, 15] [%] | Relative abundance of OUT (operational taxonomic units) [2, 16] [%] | Relative abundance of OUT (operational taxonomic units) [2, 17] [%] | Relative abundance of OUT (operational taxonomic units) [2, 18] [%] | Relative abundance of OUT (operational taxonomic units) [2, 19] [%] | Relative abundance of OUT (operational taxonomic units) [2, 20] [%] | Relative abundance of OUT (operational taxonomic units) [2, 21] [%] | Relative abundance of OUT (operational taxonomic units) [2, 22] [%] | Molecule | interference with the activity of HAase [1] | also measured |
| --- | --- | --- | --- | --- | --- | --- | --- | --- | --- | --- | --- | --- | --- | --- | --- | --- | --- | --- | --- | --- |
| 51.8 | 56.0 | 53.7 | 56.3 | 51.2 | 55.4 | 63.7 | 64.8 | 71.7 | 44.7 | 41.9 | 39.8 | 41.2 | 39.4 | 41.1 | 46.3 | 45.9 | 49.7 | Teicoplanin | does not interfere with the activity of HAase | Final concentration of HAase (units/ml) 150 [1, 3]: 160 units/ml; Final concentration of HAase (units/ml) 500 [1, 3]: 488 units/ml; Final concentration of HAase (units/ml) 2000 [1, 3]: 1972 units/ml; Final concentration of HAase (units/ml) 6000 [1, 3]: 6033 units/ml; Final concentration of HAase (units/ml) 150 [1, 4]: 152 units/ml; Final concentration of HAase (units/ml) 500 [1, 4]: 498 units/ml; Final concentration of HAase (units/ml) 2000 [1, 4]: 1961 units/ml; Final concentration of HAase (units/ml) 6000 [1, 4]: 5979 units/ml |
| 35.5 | 37.2 | 36.3 | 36.2 | 36.2 | 37.1 | 42.1 | 42.9 | 48.7 | 24.4 | 23.6 | 20.4 | 22.6 | 20.7 | 24.3 | 25.8 | 28.6 | 31.9 | CC1=C(C(=O)O)N2C(=O)[C@@H](NC(=O)[C@H](N)C3=CCC=CC3)[C@H]2SC1 [Cefradine] | does not interfere with the activity of HAase | Final concentration of HAase (units/ml) 150 [1, 23]: 162 units/ml; Final concentration of HAase (units/ml) 500 [1, 23]: 492 units/ml; Final concentration of HAase (units/ml) 2000 [1, 23]: 2009 units/ml; Final concentration of HAase (units/ml) 6000 [1, 23]: 6126 units/ml; Final concentration of HAase (units/ml) 150 [1, 24]: 161 units/ml; Final concentration of HAase (units/ml) 500 [1, 24]: 482 units/ml; Final concentration of HAase (units/ml) 2000 [1, 24]: 2080 units/ml; Final concentration of HAase (units/ml) 6000 [1, 24]: 5797 units/ml |
